# In paper PMC12518639, “Apomorphine is a novel necroptosis inhibitor targeting mixed lineage kinase domain-like protein oligomerization” (Cell Death Discovery, 2025):
# Tests used:
# mouse MLKL (mMLKL) = experiment: MLKL oligomerization Western blot in J774A.1 cells; format: cell-based; settings: J774A.1, TBZ, 20 μM, 8 h
# Protocol: Fig. 2 Effect of redox-sensitive APO on MLKL oligomerization. A Chemical structure of APO. APO undergoes auto-oxidation to form the oxidized form (Ox-APO), while the addition of DTT preserves the reduced form (Re-APO). The red highlights indicate the sites where APO loses hydrogen and electrons during the oxidation process. B Real-time 1D ^1H NMR spectra showing the degree of oxidation of APO. APO was dissolved from its powdered form in DPBS and incubated at 25 °C for 36 h. Real-time 1D ^1H NMR spectra were measured at a 2 h intervals after filtration through a 0.2 μm syringe filter to remove precipitates. […] C MLKL oligomerization is inhibited by APO. THP-1 cells were treated with TBZ and Re-APO or Ox-APO for 8 h. Western blot analysis of WCLs was performed under non-reducing and reducing conditions using the indicated antibodies. Percentage changes of p-MLKL oligomer band relative to GAPDH were shown. The p value for MLKL oligomer band intensity was calculated based on the average intensity of the tetramer and octamer bands. Octa octamer, Tetra tetramer, Mono monomer. Mean ± SEM (n = 3). **p < 0.001, ns not significant, one-way ANOVA. D THP-1 cells were treated with TBZ and Ox-APO or Re-APO for 8 h and then stained with DAPI and MLKL for confocal microscopy. In the intensity graph, green indicates MLKL. The signal intensity of MLKL fluorescence from the plasma membrane to the cytosol was measured using FluoView FV1000 software. Mean ± SEM (n > 100). **p < 0.01, ***p < 0.001, one-way ANOVA. E J774A.1 mouse monocytic cells were treated with TBZ and 20 μM Re-APO or Ox-APO for 8 h. Western blot analysis of WCLs was performed under non-reducing and reducing conditions using the indicated antibodies.
# The cells were harvested and lysed in 1× RIPA buffer (R4100-010, GenDEPOT, Katy, TX, USA) containing protease (P3100-001, GenDEPOT) and phosphatase (1862495, Thermo Fisher Scientific) inhibitors. WCLs were then centrifuged at 20,000×g for 30 min at 4 °C and subjected to non-reducing or reducing 8–12% SDS-PAGE gel electrophoresis. The membrane was blocked with 5% non-fat milk in TBS and probed with antibodies. Antibodies to hMLKL (14993S), mMLKL (97705S), phospho-hMLKL (Ser358) (91689S), phospho-mMLKL (Ser345) (37333S), phospho-hRIP1 (Ser166) (65746S), mRIP1 (3493S), phospho-mRIP1 (Ser321) (38662S), phospho-hRIP3 (Ser227) (93654), mRIP3 (95702S), p-mRIP3 (Thr231/Ser232) (91702S), and LDH (2012S) (Cell Signaling Technology, Danvers, MA, USA), and GAPDH (LF-PA0018, Abfrontier, S. Korea), hRIP1 (ab72139, Abcam, Cambridge, UK), hRIP3 (sc-135170, Santa Cruz Biotechnology, Dallas, TX, USA), HMGB1 (ab78923, Abcam), and LAMP1 (ab24170, Abcam) antibodies were used.
# Wt-hMLKL = target: T1, Wt-hMLKL (Homo sapiens, UniProt Q8NB16); experiment: SPR binding to Wt-hMLKL; settings: for Kd: SPR, CM5 chip, 25 °C
# T1 construct: purchased Abcam ab241453
# T1 sequence (Q8NB16 1-471): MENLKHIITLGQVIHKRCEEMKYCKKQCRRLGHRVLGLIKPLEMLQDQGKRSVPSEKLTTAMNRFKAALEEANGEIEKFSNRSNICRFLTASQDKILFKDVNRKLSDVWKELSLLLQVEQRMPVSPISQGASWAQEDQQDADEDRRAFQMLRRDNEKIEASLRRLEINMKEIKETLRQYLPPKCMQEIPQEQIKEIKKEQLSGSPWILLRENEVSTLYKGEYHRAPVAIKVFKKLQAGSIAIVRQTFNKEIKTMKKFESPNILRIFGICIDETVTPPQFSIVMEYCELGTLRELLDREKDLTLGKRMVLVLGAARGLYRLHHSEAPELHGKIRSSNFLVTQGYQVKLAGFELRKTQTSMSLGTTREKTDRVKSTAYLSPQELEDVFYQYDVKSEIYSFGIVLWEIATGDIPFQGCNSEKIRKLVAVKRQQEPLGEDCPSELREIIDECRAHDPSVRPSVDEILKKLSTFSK
# Description: (§1) The hMLKL plasmid (RC213152, OriGene, Rockville, MD, USA), and recombinant Wt-hMLKL (ab241453, Abcam) and Wt-mMLKL (MBS1379843, MyBioSource, San Diego, CA, USA) proteins were purchased. Nt-hMLKL (2–154), Nt-mMLKL (1–180), and Ct-hMLKL (183–471) were generated using the pBT7-N-His vector. Nt-hMLKL^C86A, Nt-hMLKL^F148A, -hMLKL^C86A/L89A/D94A, and Nt-hMLKL^R145A/R146A/F148A/M150A were generated using the Site-directed Mutagenesis Kit (EZ004S, Enzynomics, S. Korea). These constructs were subcloned into pBT7-N-His and pET-15b plasmid vectors. E. coli BL21 cells transformed with the cloned expression vectors were cultured in LB medium and supplemented with 100 μg/mL ampicillin until an OD at 600 nm of 0.5–0.6 was reached. The cultures were induced by 1 mM IPTG (367-93-1, Sigma-Aldrich). The cells were lysed and centrifuged. The clear supernatants were subjected to Ni-NTA affinity chromatography (175018169, QIAGEN, Hilden, Germany). Plasmids encoding mMLKL (1–464)–gyrase fusion constructs were kindly provided by Prof. James Murphy (Cell Signalling and Cell Death Division, The Walter and Eliza Hall Institute of Medical Research, Parkville, Victoria 3052, Australia).
# The interactions of Wt-hMLKL, Wt-mMLKL, Nt-mMLKL, Nt, and Ct-hMLKL proteins with Re-APO or Ox-APO were detected through SPR analysis using Biacore™ T200 (Cytiva, Marlborough, MA, USA). Each MLKL protein was immobilized on a CM5 sensor chip. To derive the Rligand values, coupling processes were performed based on the molecular weights of the MLKL protein (MW ligand) and Re-APO or Ox-APO (MW analyte). Re-APO or Ox-APO was injected into an HBS buffer (10 mM HEPES, 150 mM NaCl, 3.4 mM EDTA, and 0.005% Tween 20, pH 7.4) at 25 °C (10 μL/min flow rate). Sensorgrams were recorded and analyzed in real-time using the control software in the BIAcore T200 system. All data were analyzed using the BIA evaluation software (Cytiva).
# Wt-mMLKL = target: T2, Wt-mMLKL (Mus musculus, UniProt Q9D2Y4); experiment: SPR binding to Wt-mMLKL; settings: CM5 chip, 25 °C
# T2 construct: purchased MyBioSource MBS1379843
# Description: as §1, with “James Murphy (Cell Signalling and Cell Death Division, The Walter and Eliza Hall Institute of Medical Research, Parkville, Victoria 3052, Australia).” left out
# The interactions of Wt-hMLKL, Wt-mMLKL, Nt-mMLKL, Nt, and Ct-hMLKL proteins with Re-APO or Ox-APO were detected through SPR analysis using Biacore™ T200 (Cytiva, Marlborough, MA, USA). […] Sensorgrams were recorded and analyzed in real-time using the control software in the BIAcore T200 system. All data were analyzed using the BIA evaluation software (Cytiva).
# T2 sequence (Q9D2Y4 whole entry): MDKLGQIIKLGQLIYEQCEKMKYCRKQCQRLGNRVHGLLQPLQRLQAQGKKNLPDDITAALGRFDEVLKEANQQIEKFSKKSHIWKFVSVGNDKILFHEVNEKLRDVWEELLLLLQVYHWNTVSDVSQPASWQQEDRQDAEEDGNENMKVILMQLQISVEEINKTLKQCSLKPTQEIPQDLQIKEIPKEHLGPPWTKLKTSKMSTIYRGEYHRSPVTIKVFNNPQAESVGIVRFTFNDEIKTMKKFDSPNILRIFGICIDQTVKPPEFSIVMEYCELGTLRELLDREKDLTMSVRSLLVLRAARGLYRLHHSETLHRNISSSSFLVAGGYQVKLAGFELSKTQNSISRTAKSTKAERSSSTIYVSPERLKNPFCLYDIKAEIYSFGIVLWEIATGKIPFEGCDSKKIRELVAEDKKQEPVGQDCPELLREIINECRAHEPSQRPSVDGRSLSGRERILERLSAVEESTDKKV
compound,measurement,setting,value
CN1CCc2cccc3c4c(cc1c23)C=CC(=O)C4=O [Ox-APO],formation of mMLKL tetramers and octamers,mouse MLKL (mMLKL),strongly prevented
same,"phosphorylation of mRIP1, mRIP3 and mMLKL",mouse MLKL (mMLKL),little effect
same,Kd,Wt-hMLKL,5 nM
same,fold stronger binding than Re-APO,Wt-hMLKL; from KD values,~ 50 fold
same,Kd,Wt-mMLKL,0.381 nM
CN1CCc2cccc3c2C1Cc1ccc(O)c(O)c1-3 (stereo not drawn) [Re-APO],formation of mMLKL tetramers and octamers,mouse MLKL (mMLKL),strongly prevented
same,"phosphorylation of mRIP1, mRIP3 and mMLKL",mouse MLKL (mMLKL),little effect
same,Kd,Wt-hMLKL,244 nM
same,Kd,Wt-mMLKL,22.9 nM
